Tests used:
Type in all cases: in vivo
[1] = system: Echinochloa crus-galli (ECHCG); experiment: Herbicidal pre-emergence action, section A (Table A3); details: application rate 1280 g/ha, visual grading after ca. 3 weeks vs untreated controls; for pest or weed control at 1280 g/ha: Echinochloa crus-galli, pre-emergence, 504 h, read-out: pre-emergence activity against ECHCG in %
Excerpt: (§1) Seeds of mono- and dicotyledonous weed plants were sown in plastic pots (double sowings with one species of mono- and one species of dicotyledonous weed plants per pot), in sandy loam, and covered with soil. The compounds according to the invention, formulated in the form of wettable powders (WP) or as emulsifiable concentrates (EC), were applied to the surface of the covering soil as aqueous suspension or emulsion, with the addition of 0.5% of an additive, at an application rate of 600 l of water per hectare (converted). Following treatment, the pots were placed in a greenhouse and kept under optimum growth conditions for the test plants. The visual grading of the damage to the test plants was carried out after ca. 3 weeks in comparison to untreated controls (herbicidal effect in percent (%): 100% effect=plants have died off, 0% effect=as control plants).

Stellaria media (STEME) = experiment: Herbicidal pre-emergence action, section A (Table A9)
Excerpt: as §1

Kochia scoparia (KCHSC) [2] = experiment: Herbicidal post-emergence action, section B (Table B4); details: application rate 1280 g/ha; visual rating about 3 weeks after treatment vs untreated controls
Method: (§2) Seeds of mono- and dicotyledonous weed plants were placed in plastic pots in sandy loam soil (doubly sown with in each case one species of mono- or dicotyledonous weed plants per pot), covered with soil and cultivated in a greenhouse under controlled growth conditions. 2 to 3 weeks after sowing, the test plants were treated at the one-leaf stage. The compounds of the invention, formulated in the form of wettable powders (WP) or as emulsion concentrates (EC), were applied onto the green parts of the plants as aqueous suspension or emulsion with addition of 0.5% additive at a water application rate of 600 liters per hectare (converted). After the test plants had been kept in the greenhouse under optimum growth conditions for about 3 weeks, the activity of the preparations was rated visually in comparison to untreated controls. For example, 100% activity=the plants have died, 0% activity=like control plants.

[3] = system: Amaranthus retroflexus (AMARE); experiment: Herbicidal pre-emergence action, section A (Table A11)
Excerpt: as §1

Veronica persica (VERPE) [4] = experiment: Herbicidal post-emergence action, section B (Table B10); details: application rate 1280 g/ha; visual rating about 3 weeks after treatment vs untreated controls
Method: as §2

[5] = system: Amaranthus retroflexus (AMARE); experiment: Herbicidal post-emergence action, section B (Table B11); details: visual rating about 3 weeks after treatment vs untreated controls
Method: as §2

Setaria viridis (SETVI) = experiment: Herbicidal pre-emergence action, section A (Table A8); details: for pest or weed control at 1280 g/ha: Setaria viridis, 504 h, read-out: pre-emergence activity against SETVI in %
Excerpt: as §1

Veronica persica (VERPE) [6] = experiment: Herbicidal pre-emergence action, section A (Table A10); details: application rate 1280 g/ha
Excerpt: as §1

Poa annua (POAAN) [7] = experiment: Herbicidal pre-emergence action, section A (Table A7); details: visual grading after ca. 3 weeks vs untreated controls
Excerpt: as §1

Kochia scoparia (KCHSC) [8] = experiment: Herbicidal pre-emergence action, section A (Table A4); details: application rate 1280 g/ha, visual grading after ca. 3 weeks vs untreated controls
Excerpt: as §1

Poa annua (POAAN) [9] = experiment: Herbicidal post-emergence action, section B (Table B7); details: application rate 1280 g/ha, visual rating about 3 weeks after treatment vs untreated controls
Method: as §2

[10] = system: Digitaria sanguinalis (DIGSA); experiment: Herbicidal pre-emergence action, section A (Table A12); details: application rate 1280 g/ha; for pest or weed control at 1280 g/ha: Digitaria sanguinalis, 504 h, read-out: pre-emergence activity against DIGSA in %
Excerpt: as §1

Lolium rigidum (LOLRI) = experiment: Herbicidal pre-emergence action, section A (Table A5); details: application rate 1280 g/ha, visual grading after ca. 3 weeks vs untreated controls
Excerpt: as §1

[11] = system: Matricaria inodora (MATIN); experiment: Herbicidal pre-emergence action, section A (Table A6); details: Tripleurospermum inodorum, pre-emergence, 504 h; application rate 1280 g/ha; visual grading after ca. 3 weeks vs untreated controls; read-out: pre-emergence activity against MATIN in %
Excerpt: as §1

Cc1cc2c(nc1-c1cccc(Cl)c1F)N(S(C)(=O)=O)CS2 [Example I-111]
100%: pre-emergence activity against ECHCG in % [1]
90%: pre-emergence activity against STEME in % (Stellaria media (STEME); application rate 1280 g/ha) | post-emergence activity against KCHSC in % (Kochia scoparia (KCHSC) [2])

O=C(N1CSc2cc(Br)c(-c3cccc(Cl)c3F)nc21)C12CCCC1C(Cl)=NO2 (stereo not drawn) [Example I-126]
90%: pre-emergence activity against AMARE in % ([3]; application rate 320 g/ha) | post-emergence activity against VERPE in % (Veronica persica (VERPE) [4]) | pre-emergence activity against STEME in % (Stellaria media (STEME); application rate 1280 g/ha) | post-emergence activity against AMARE in % ([5]; application rate 320 g/ha) | pre-emergence activity against SETVI in % (Setaria viridis (SETVI); application rate 1280 g/ha)

N#CCS(=O)(=O)N1CSc2cc(Br)c(-c3cccc(Cl)c3F)nc21 [Example I-131]
90%: pre-emergence activity against AMARE in % ([3]; application rate 1280 g/ha) | post-emergence activity against VERPE in % (Veronica persica (VERPE) [4]) | pre-emergence activity against STEME in % (Stellaria media (STEME); application rate 1280 g/ha) | post-emergence activity against AMARE in % ([5]; application rate 1280 g/ha)

CCS(=O)(=O)N1CSc2cc(Br)c(-c3cccc(Cl)c3F)nc21 [Example I-132]
90%: post-emergence activity against VERPE in % (Veronica persica (VERPE) [4]) | pre-emergence activity against VERPE in % (Veronica persica (VERPE) [6]) | post-emergence activity against AMARE in % ([5]; application rate 1280 g/ha)

CCS(=O)(=O)N1C[S+]([O-])c2cc(Br)c(-c3ccccc3Cl)nc21 (stereo not drawn) [Example I-134]
100%: pest or weed control at 1280 g/ha [1] | pest or weed control at 1280 g/ha (Poa annua (POAAN) [7]; Poa annua, pre-emergence, 504 h, application rate 1280 g/ha, read-out: pre-emergence activity against POAAN in %) | pest or weed control at 1280 g/ha (Setaria viridis (SETVI); application rate 1280 g/ha) | pest or weed control at 1280 g/ha [10]
90%: pest or weed control at 1280 g/ha ([3]; Amaranthus retroflexus, 504 h, application rate 1280 g/ha, read-out: pre-emergence activity against AMARE in %) | pest or weed control at 1280 g/ha (Stellaria media (STEME); Stellaria media, 504 h, application rate 1280 g/ha, read-out: pre-emergence activity against STEME in %) | pest or weed control at 1280 g/ha (Kochia scoparia (KCHSC) [8]; Bassia scoparia, pre-emergence, 504 h, read-out: pre-emergence activity against KCHSC in %) | pest or weed control at 1280 g/ha (Poa annua (POAAN) [9]; Poa annua, post-emergence, 504 h, read-out: post-emergence activity against POAAN in %)

Cc1cccc(-c2nc3c(cc2Br)SCN3C(=O)C2(C)CC(Cl)=NO2)c1C (stereo not drawn) [Example I-140]
100%: pre-emergence activity against POAAN in % (Poa annua (POAAN) [7]; application rate 1280 g/ha)
90%: pre-emergence activity against AMARE in % ([3]; application rate 1280 g/ha) | pre-emergence activity against STEME in % (Stellaria media (STEME); application rate 1280 g/ha)

COCCOCCOCC(=O)N1CSc2cc(C)c(-c3cccc(F)c3F)nc21 [Example I-149]
100%: pre-emergence activity against ECHCG in % [1] | pre-emergence activity against POAAN in % (Poa annua (POAAN) [7]; application rate 1280 g/ha) | pre-emergence activity against SETVI in % (Setaria viridis (SETVI); application rate 320 g/ha) | pre-emergence activity against DIGSA in % [10]
90%: pre-emergence activity against AMARE in % ([3]; application rate 320 g/ha) | pre-emergence activity against VERPE in % (Veronica persica (VERPE) [6]) | pre-emergence activity against STEME in % (Stellaria media (STEME); application rate 1280 g/ha) | pre-emergence activity against LOLRI in % (Lolium rigidum (LOLRI)) | pre-emergence activity against KCHSC in % (Kochia scoparia (KCHSC) [8]) | post-emergence activity against POAAN in % (Poa annua (POAAN) [9])

CCC(=O)N1C[S+]([O-])c2cc(C)c(-c3cc(F)ccc3F)nc21 (stereo not drawn) [Example I-167]
100%: pest or weed control at 1280 g/ha [1] | pest or weed control at 320 g/ha (Poa annua (POAAN) [7]; Poa annua, pre-emergence, 504 h, application rate 320 g/ha, read-out: pre-emergence activity against POAAN in %) | pest or weed control at 1280 g/ha (Lolium rigidum (LOLRI); Lolium rigidum, pre-emergence, 504 h, read-out: pre-emergence activity against LOLRI in %) | pest or weed control at 1280 g/ha [10]
90%: pest or weed control at 320 g/ha ([3]; Amaranthus retroflexus, 504 h, application rate 320 g/ha, read-out: pre-emergence activity against AMARE in %) | pest or weed control at 1280 g/ha (Veronica persica (VERPE) [6]; Veronica persica, 504 h, read-out: pre-emergence activity against VERPE in %) | pest or weed control at 320 g/ha (Stellaria media (STEME); Stellaria media, 504 h, application rate 320 g/ha, read-out: pre-emergence activity against STEME in %) | pest or weed control at 1280 g/ha [11] | pest or weed control at 1280 g/ha (Setaria viridis (SETVI); application rate 1280 g/ha)
